Measurements: patent US20170333459A1 (priority 2010, published 2017)

Tested on: ectromelia, cowpox, vaccinia, or monkeypox virus
Design: species or system mice
Settings: mouse, in vivo

## CCCCCCCCCCCCCCCCOCCCOP(=O)(O)CO[C@H](CO)Cn1ccc(N)nc1=O [CMX001, 1-O-hexadecyloxypropyl cidofovir]
  preventing mortality: effective in preventing mortality
